Assay results taken from patent US20050004186A1, “MEK inhibiting compounds” (Pfizer Inc, priority 2002, published 2005).
Where a name gives a salt, the structure may show the parent alone.

How the values were obtained:
[1] = test system: MEK; assay: Cellular assay for measuring MEK inhibition, C26CPA1 (inhibition of ERK phosphorylation in C26 cells); format: cell-based, murine; conditions: for IC50: murine colon 26 (C26) carcinoma cells, one hour at 37 C
Procedure: Cellular Assay for Measuring MEK Inhibition
MEK inhibitors were evaluated by determining their ability to inhibit phosphorylation of MAP kinase (ERK) in murine colon 26 (C26) carcinoma cells. Since ERK1 and ERK2 represent the only known substrates for MEK1 and MEK2, the measurement of inhibition of ERK phosphorylation in cells provides direct read out of cellular MEK inhibition by the compounds of the invention. Detection of phosphorylation of ERK was carried out either by Western blot or ELISA format. Briefly, the assays involve treatment of exponentially growing C26 cells with varying concentrations of the test compound (or vehicle control) for one hour at 37≡ C. For Western blot assay, cells were rinsed free of compound/vehicle and lysed in a solution containing 70 mM NaCl, 50 mM glycerol phosphate, 10 mM HEPES, […], 1% Triton X-100, 1 mM Na3VO4, 100 μM PMSF, 10 μM leupeptin and 10 μM pepstatin. Supernatants were then subjected to gel electrophoresis and hybridized to a primary antibody recognizing dually phosphorylated ERK1 and ERK2. To evaluate total MAPK levels, blots were subsequently ‘stripped’ and re-probed with a 1:1 mixture of polyclonal antibodies recognizing unphosphorylated ERK1 and ERK2. For pERK ELISA assay, pERK TiterZyme Enzyme immunometric Assay kits were acquired from Assay Designs, Inc (Ann Arbor, Mich.). Briefly, cells were harvested in lysis solution containing 50 mM β-glycerophosphate, 10 mM HEPES, pH7.4, 70 mM NaCl, 2 mM EDTA and 1% SDS and protein lysates were diluted 1:15 with supplied Assay buffer prior to the execution of the assay. The subsequent steps were carried out essentially as recommended by the manufacturer.

Row | SMILES | melting point | IC50 [1] | C26CPA1 % Inhibition @ 0.1 μM ([1]; 0.1 μM, C26 cells) | C26CPA1 % Inhibition @ 1 μM ([1]; 1 μM, C26 cells)
1 | COc1ccc(Nc2nnc(-c3ccc(F)c(F)c3Nc3ccc(I)cc3F)o2)c(OC)c1 [Example 6, {5-[3,4-Difluoro-2-(2-fluoro-4-iodo-phenylamino)-phenyl]-[1,3,4]oxadiazol-2-yl}-(2.4-dimethoxy-phenyl)-amine] | 185 to 186 °C | > 1 µM | – | –
2 | NCCCNc1nnc(-c2ccc(F)c(F)c2Nc2ccc(I)cc2F)o1 (as salt: hydrochloride) [Example 15, N′1′-{5-[3,4-Difluoro-2-(2-fluoro-4-iodo-phenylamino)-phenyl]-[1,3,4]oxadiazol-2-yl}-propane-1,3-diamine] | 173 to 176 °C | – | – | –
3 | OCC(O)CNc1nnc(-c2ccc(F)c(F)c2Nc2ccc(I)cc2F)o1 (stereo not shown) [Example 8, 3-{5-[3,4-Difluoro-2-(2-fluoro-4-iodo-phenylamino)-phenyl]-[1,3,4]oxadiazol-2-ylamino}-propane-1,2-diol] | 157 to 159 °C | 0.067 µM | – | –
4 | CN(C)c1ccc(Nc2nnc(-c3ccc(F)c(F)c3Nc3ccc(I)cc3F)o2)cc1 [Example 7, N-{5-[3,4-Difluoro-2-(2-fluoro-4-iodo-phenylamino)-phenyl]-[1,3,4]oxadiazol-2-yl}-N′,N′-dimethyl-benzene-1,4-diamine] | 230 to 233 °C | > 1 µM | – | –
5 | C=CCNc1nnc(-c2ccc(F)c(F)c2Nc2ccc(I)cc2F)o1 [Example 5, Allyl-{5-[3,4-difluoro-2-(2-fluoro-4-iodo-phenylamino)-phenyl]-[1,3,4]oxadiazol-2-yl}-amine] | 175 to 178 °C | 0.009 µM | – | –
6 | NCCCCNc1nnc(-c2ccc(F)c(F)c2Nc2ccc(I)cc2F)o1 (as salt: hydrochloride) [Example 14, N′1′-{5-[3,4-Difluoro-2-(2-fluoro-4-iodo-phenylamino)-phenyl]-[1,3,4]oxadiazol-2-yl}-butane-1,4-diamine] | 157 to 159 °C | – | – | –
7 | CN(C)CCCN(C)c1nnc(-c2ccc(F)c(F)c2Nc2ccc(I)cc2F)o1 (as salt: hydrochloride) [Example 12, N-{5-[3,4-Difluoro-2-(2-fluoro-4-iodo-phenylamino)-phenyl]-[1,3,4]oxadiazol-2-yl}-N,N′,N′-trimethyl-propane-1,3-diamine] | 123 to 126 °C | – | – | –
8 | NCCNc1nnc(-c2ccc(F)c(F)c2Nc2ccc(I)cc2F)o1 (as salt: salt) [Example 11, N′1′-{5-[3,4-Difluoro-2-(2-fluoro-4-iodo-phenylamino)-phenyl]-[1,3,4]oxadiazol-2-yl}-ethane-1,2-diamine] | 156 to 158 °C | – | – | –
9 | Nc1nnc(-c2cc(Cl)c(F)c(F)c2Nc2ccc(I)cc2F)o1 [Example 2, 5-[5-Chloro-3,4-difluoro-2-(2-fluoro-4-iodo-phenylamino)-phenyl]-[1,3,4]oxadiazol-2-ylamine] | – | 0.018 µM | – | –
10 | CC(C)CNc1nnc(-c2ccc(F)c(F)c2Nc2ccc(I)cc2F)o1 [Example 48, {5-[3,4-Difluoro-2-(2-fluoro-4-iodo-phenylamino)-phenyl]-[1,3,4]oxadiazol-2-yl}-isobutyl-amine] | – | – | 31.7% | 66.9%
11 | Fc1cc(I)ccc1Nc1c(-c2nnc(NCCN3CCCCC3)o2)ccc(F)c1F (as salt: hydrochloride) [Example 13, {5-[3,4-Difluoro-2-(2-fluoro-4-iodo-phenylamino)-phenyl]-[1,3,4]oxadiazol-2-yl}-(2-piperidin-1-yl-ethyl)-amine] | 191 to 193 °C | – | – | –
12 | Nc1nnc(-c2ccc(F)c(F)c2Nc2ccc(Br)cc2F)o1 [Example 3, 5-[2-(4-Bromo-2-fluoro-phenylamino)-3,4-difluoro-phenyl]-[1.3,4]oxadiazol-2-ylamine] | – | 0.14 µM | – | –

The next lines start with results.

Row | melting point | IC50 [1] | SMILES | C26CPA1 % Inhibition @ 0.1 μM ([1]; 0.1 μM, C26 cells) | C26CPA1 % Inhibition @ 1 μM ([1]; 1 μM, C26 cells)
13 | 121 to 122 °C | 0.18 µM | CCN(CCCCO)c1nnc(-c2ccc(F)c(F)c2Nc2ccc(I)cc2F)o1 [Example 27, 4-({5-[3,4-Difluoro-2-(2-fluoro-4-iodo-phenylamino)-phenyl]-[1,3,4]oxadiazol-2-yl}-ethyl-amino)-butan-1-ol] | – | –
14 | 100 to 103 °C | 0.1 µM | CCc1ccc(Nc2c(-c3nnc(NCCO)o3)ccc(F)c2F)c(F)c1 [Example 69, 2-{5-[2-(4-Ethyl-2-fluoro-phenylamino)-3,4-difluoro-phenyl]-[1,3,4]oxadiazol-2-ylamino}-ethanol] | – | –
15 | 233 to 238 °C | 0.05 µM | CCc1ccc(Nc2c(-c3nnc(NCCN4CCOCC4)o3)ccc(F)c2F)c(F)c1 [Example 68, {5-[2-(4-Ethyl-2-fluoro-phenylamino)-3,4-difluoro-phenyl]-[1,3,4]oxadiazol-2-yl}-(2-morpholin-4-yl-ethyl)-amine] | – | –
16 | 143 to 146 °C | 0.309 µM | CN(C)CC(C)(C)CNc1nnc(-c2ccc(F)c(F)c2Nc2ccc(I)cc2F)o1 [Example 19, N-{5-[3,4-Difluoro-2-(2-fluoro-4-iodo-phenylamino)-phenyl]-[1,3,4]oxadiazol-2-yl}-2,2,N′,N′-tetramethyl-propane-1.3-diamine] | – | –
17 | 182 to 183 °C | 0.17 µM | OC1CCN(c2nnc(-c3ccc(F)c(F)c3Nc3ccc(I)cc3F)o2)C1 (stereo not shown) [Example 24, 1-{5-[3.4-Difluoro-2-(2-fluoro-4-iodo-phenylamino)-phenyl]-[1,3,4]oxadiazol-2-yl}-pyrrolidin-3-ol] | – | –
18 | 90 to 92 °C | > 1 µM | OCC1CCN(c2nnc(-c3ccc(F)c(F)c3Nc3ccc(I)cc3F)o2)CC1 [Example 25, (1-{5-[3,4-Difluoro-2-(2-fluoro-4-iodo-phenylamino)-phenyl]-[1,3,4]oxadiazol-2-yl}-piperidin-4-yl)-methanol] | – | –
19 | 216 to 217 °C | 0.074 µM | OC1CCN(c2nnc(-c3ccc(F)c(F)c3Nc3ccc(I)cc3F)o2)CC1 [Example 28, 1-{5-[3,4-Difluoro-2-(2-fluoro-4-iodo-phenylamino)-phenyl]-[1,3,4]oxadiazol-2-yl}-piperidin-4-ol] | – | –
20 | 119 to 121 °C | 0.12 µM | OCCCCCNc1nnc(-c2ccc(F)c(F)c2Nc2ccc(I)cc2F)o1 [Example 32, 5-{5-[3,4-Difluoro-2-(2-fluoro-4-iodo-phenylamino)-phenyl]-[1,3,4]oxadiazol-2-ylamino}-pentan-1-ol] | – | –
21 | 238 to 239 °C | 0.18 µM | CCNc1nnc(-c2ccc(F)c(F)c2Nc2ccc(I)cc2F)s1 [Example 71, {5-[3,4-Difluoro-2-(2-fluoro-4-iodo-phenylamino)-phenyl]-[1,3,4]thiadiazol-2-yl}-ethyl-amine] | – | –
22 | 168 to 170 °C | – | CN(C)CCCNc1nnc(-c2ccc(F)c(F)c2Nc2ccc(I)cc2F)o1 (as salt: hydrochloride) [Example 16, N-{5-[3,4-Difluoro-2-(2-fluoro-4-iodo-phenylamino)-phenyl]-[1,3,4]oxadiazol-2-yl}-N′,N′-dimethyl-propane-1,3-diamine] | – | –
23 | 154 to 155 °C | – | OCCCNc1nnc(-c2ccc(F)c(F)c2Nc2ccc(I)cc2F)o1 [Example 30, 3-{5-[3,4-Difluoro-2-(2-fluoro-4-iodo-phenylamino)-phenyl]-[1,3,4]oxadiazol-2-ylamino}-propan-1-ol] | – | –
24 | 82 to 83 °C | – | CCc1ccc(Nc2c(-c3nnc(CC)o3)ccc(F)c2F)c(F)c1 [Example 142, (4-Ethyl-2-fluoro-phenyl)-[6-(5-ethyl-[1,3,4]oxadiazol-2-yl)-2,3-difluoro-phenyl]-amine] | – | –
25 | 120 to 123 °C | – | C=CCNc1nnc(-c2ccc(F)c(F)c2Nc2ccc(CC)cc2F)o1 [Example 70, Allyl-{5-[2-(4-ethyl-2-fluoro-phenylamino)-3,4-difluoro-phenyl]-[1,3,4]oxadiazol-2-yl}-amine] | – | –
26 | 173 to 175 °C | – | CNCCNc1nnc(-c2ccc(F)c(F)c2Nc2ccc(I)cc2F)o1 (as salt: hydrochloride) [Example 18, N-{5-[3,4-Difluoro-2-(2-fluoro-4-iodo-phenylamino)-phenyl]-[1,3,4]oxadiazol-2-yl}-N′-methyl-ethane-1,2-diamine] | – | –
27 | 184 to 187 °C | – | CN(C)CCNc1nnc(-c2ccc(F)c(F)c2Nc2ccc(I)cc2F)o1 (as salt: hydrochloride) [Example 17, N-{5-[3,4-Difluoro-2-(2-fluoro-4-iodo-phenylamino)-phenyl]-[1,3,4]oxadiazol-2-yl}-N′,N′-dimethyl-ethane-1,2-diamine] | – | –
28 | – | 0.044 µM | CCOCCCNc1nnc(-c2ccc(F)c(F)c2Nc2ccc(I)cc2F)o1 [Example 56, {5-[3,4-Difluoro-2-(2-fluoro-4-iodo-phenylamino)-phenyl]-[1,3,4]oxadiazol-2-yl}-(3-ethoxy-propyl)-amine] | – | –
29 | – | 0.08 µM | COCCCNc1nnc(-c2ccc(F)c(F)c2Nc2ccc(I)cc2F)o1 [Example 20, {5-[3,4-Difluoro-2-(2-fluoro-4-iodo-phenylamino)-phenyl]-[1,3,4]oxadiazol-2-yl}-(3-methoxy-propyl)-amine] | – | –
